Measured values reported in patent US20050074765A1, “Methods for identifying and using modulators of estrogen related receptor gamma” (priority 2002, published 2005).

What was measured:
ERRγ = target: T1, ERRγ (Homo sapiens, UniProt P62508); test: ERRγ direct binding assay ([3H]-tamoxifen competition, SPA); conditions: found using FRET assay and direct binding assay in conjunction with the homology model
T1 construct: made in house; host or cells: E. coli BL21(DE3), pRSETa vector
T1 sequence (P62508 with tags, fused parts or gaps): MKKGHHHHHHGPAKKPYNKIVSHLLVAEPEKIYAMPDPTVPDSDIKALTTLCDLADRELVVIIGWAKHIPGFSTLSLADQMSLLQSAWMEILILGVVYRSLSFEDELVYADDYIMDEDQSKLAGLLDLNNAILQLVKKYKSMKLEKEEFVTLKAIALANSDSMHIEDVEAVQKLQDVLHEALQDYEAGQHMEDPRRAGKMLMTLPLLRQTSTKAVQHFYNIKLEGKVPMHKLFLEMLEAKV
Description: The binding assay was developed with a different set of parameters than that of the LiSA assay. No common set of assay conditions is applicable to all nuclear receptors. Accordingly, parameters to be optimized included pH, detergents, carriers, and bead concentrations. By […] several variables at one time, a large number of conditions can be examined through the statistical capabilities of a program called JMP (SAS Institute, Cary N.C.). Multiple variables including, but not limited to, buffer, detergents, and carrier, were entered simultaneously Lnto the program with the goal being to increase specific counts while lowering non-specific counts.
The same ERRγ protein as set forth in Example 4 was used to develop the binding assay. The buffer for this system was prepared with 50 mM MOPS (pH 7), 50 mM KCl, and 1 mM EDTA, in 1 L of deionized water. This buffer was then filtered with the Corning (431205) filter system with a 0.22 μm cellulose Acetate filter. After filtering, 0.01% Tween20 was added. Before using the buffer in the assay, 10 mM DTT was added to the appropriate amount of buffer. Approximately 0.125 mg/ml SA-SPA beads (Wallac) were coated with 20 nM biotinylated ERRγ. […] These plates were then read on the Wallac Trilux scintillation counter.

ERRγ:RIP140 complex = target: T2, ERRγ:RIP140 complex (Homo sapiens, UniProt P62508); test: ERRγ:RIP140 FRET ligand sensing assay (LiSA); format: biochemical; conditions: ERRγ LBD and RIP140 peptide, one to one ratio
T2 construct: made in house; host or cells: E. coli BL21(DE3), pRSETa vector; RIP140 peptide synthesised by SynPep
T2 sequence (P62508 with tags, fused parts or gaps): T1 sequence (P62508 with tags, fused parts or gaps)
Experimental: Before using the buffer in the assay, 10 mM DTT was added to the appropriate amount of buffer.

| Molecule | ligand for ERRγ (ERRγ) | dissociation of the receptor:cofactor interaction (ERRγ:RIP140 complex) |
| --- | --- | --- |
| 4-hydroxytamoxifen | ligands for ERPγ | caused this dissociation |
| CC/C(=C(/c1ccc(OCCN(C)C)cc1)c1cccc(O)c1)c1ccccc1 [3-hydroxytamoxifen] | ligands for ERPγ | – |
